Assay results taken from PubChem BioAssay (NCI).
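Protocol summary: plate cells (96-well), add compound at 5 concentrations, incubate 48 h, interpolate endpoints linearly. The concentration for full growth arrest is given as TGI.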

What was measured:
Assay in all cases: NCI-60 cell line screen, 48 h
DMS 114 small cell lung = test system: DMS 114 small cell lung
SNB-78 CNS = test system: SNB-78 CNS
KM20L2 colon = test system: KM20L2 colon
XF 498 CNS = test system: XF 498 CNS
M19-MEL melanoma = test system: M19-MEL melanoma

Measured: TGI

O=C(Nc1ccc(C(F)(F)F)cc1[N+](=O)[O-])C(=O)Nn1c(=S)[nH]c2ccccc2c1=O
> 100 µM: all assays above
